From patent US20210196731A1, “COMPOSITIONS AND METHODS FOR TREATING OCULAR INFLAMMATION AND OCULAR SCARRING” (priority 2018, published 2021) come the findings set out here.

Holding throughout (assay type): cell-based, human
For one assay, the system named is collagen 1. Description: Western blot of HTCF protein lysate, collagen 1. The conditions noted are these: ASA 500 or 1000 μg/ml, APHS 12 μg/ml, with or without gentamicin 250 or 500 μg/ml, 48 hrs. On the procedure:
(§1) Cells were lysed in lysis buffer (PhosphoSafe Extraction Reagent, Novagen) containing a protease inhibitor cocktail (P2714, Sigma-Aldrich). Crude protein lysate was quantified using a Pierce BCA protein assay kit (ThermoFisher, Mississauga, ON) and 10 ug from each sample was resolved using a Novex WedgeWell 4-20% tris-glycine gel (Invitrogen). Using an iBlot Gel Transfer Device (IB1001, Invitrogen), the separated protein was transferred to a nitrocellulose membrane (1B301001, iBlot Transfer Stack, Invitrogen) which was then blocked with 5% (w/v) bovine serum albumin (Sigma-Aldrich) in Tris buffered saline (TBST) for 1 hour at room temperature. The membranes were incubated overnight at 4° C. with primary antibody diluted in TBST containing 5% BSA (w/vol). […] Visualization was accomplished by applying WesternBright Quantum chemiluminescent reagent (Advansta, Inc.), with GAPDH used as a protein loading control. Imaging and relative densiometric quantification was accomplished using a ChemiDoc MP System (Bio-Rad Laboratories, Inc.) connected to Image Lab (Version 6, Bio-Rad Laboratories, Inc.).
Background: Immunoblotting shows a protein as a band on a membrane.

The next assay has as its system SMAD2/3. Description: Western blot of HTCF protein lysate, SMAD2/3. Particulars: ASA 500 or 1000 μg/ml, APHS 12 μg/ml, 48 hrs. On the procedure: as §1
The next assay concerns HTCFs. Description: Lipid Mediator Secretion Assay II (ASA or APHS with and without gentamicin, LC-MS/MS). Particulars: for CytoM1+TGFb1 induced COX2 activity, as measured through PGE2 and kPGF1a secretion / secretion of acetylated-COX2 products, as measured through 5-HETE and 15-HETE secretion: ASA 500 or 1000 μg/ml, with or without gentamicin 250 or 500 μg/ml, 6-48 hrs; for secretion of acetylated-COX2 products, as measured through 5-HETE and 15-HETE secretion: CytoM1+TGFb1. The protocol: To this end, as before, multiple primary HTCF cell lines were cultured in DMEM w/10% FBS in 6-well culture plates, incubated at 37° C. and 5% CO2, until 90% confluent. The culture media was removed, wells washed with PBS, and then fresh DMEM w/0% FBS was added. After 24 hrs of serum starvation, fresh DMEM w/0% FBS was added, this time containing a physiologically relevant inflammation/wound healing induction mixture (1 ng/ml each of: IL-1b, TNFa, IFNγ, TGFb). After 12 hrs incubation, the induction media was removed, the wells were washed with PBS and fresh DMEM w/0% FBS was added containing one of ten experimental treatments for an incubation period of 48 hrs: 1) non-induced control (NIC: received DMEM w/0% FBS instead of the induction media), and 2) CytoM1+TGFB1 (DMEM w/0% FBS and 1 ng/ml each of: IL-1b, TNFa, IFNγ, TGFb), and 3) CytoM1/TGFB1/Gent250 (DMEM w/0% FBS, 1 ng/ml each of TGFB1, TGFB2, VEGF, CCN2 and 250 μg/ml gentamicin), and 4) CytoM1/TGFB1/Gent500 (DMEM w/0% FBS, 1 ng/ml each of TGFB1, TGFB2, VEGF, CCN2 and 500 μg/ml gentamicin), and 5) CytoM1/TGFB1/ASA500 (DMEM w/0% FBS, 1 ng/ml each of TGFB1, TGFB2, VEGF, CCN2, and 500 μg/ml ASA), and 6) CytoM1/TGFB1/ASA500/Gent250 (DMEM w/0% FBS, 1 ng/ml each of TGFB1, TGFB2, VEGF, CCN2, 500 μg/ml ASA and 250 μg/ml gentamicin), and 7) CytoM1/TGFB1/ASA1000 (DMEM w/0% FBS, 1 ng/ml each of TGFB1, TGFB2, VEGF, CCN2 and 1000 μg/ml ASA), and 8) CytoM1/TGFB1/ASA1000/Gent500 (DMEM w/0% FBS, 1 ng/ml each of TGFB1, TGFB2, VEGF, CCN2, 1000 μg/ml ASA, and 500 μg/ml gentamicin), and 9) CytoM1/TGFB1/APHS12 (DMEM w/0% FBS, 1 ng/ml each of TGFB1, TGFB2, VEGF, CCN2 and 12 μg/ml o-(acetoxyphenyl)hept-2-ynyl sulfide (APHS), and 10) CytoM1/TGFB1/APHS12/Gent250 (DMEM w/0% FBS, 1 ng/ml each of TGFB1, TGFB2, VEGF, CCN2, 12 μg/ml o-(acetoxyphenyl)hept-2-ynyl sulfide (APHS) and 250 μg/ml gentamicin). At 6, 12, 24 and 48 hrs after addition of the experimental treatments, 250 ul of supernatant was removed from each well, replaced with 250 ul of fresh DMEM w/0% FBS, and stored at −80° C. for subsequent LC-MS/MS analysis. After 48 hrs, the wells were washed with ice cold PBS three times and total cellular protein from the HTCF monolayer was collected for quantification and subsequent western blot analyses. The absolute quantity of protein within each culture well's HTCF monolayer was used as a means to standardize the relative secretion of lipid mediators by HTCFs into the culture well's supernatant.
This is a well-established method to determine the relative activity of cyclooxygenase, acetyl-COX2 and lipoxygenase biosynthetic pathways. In brief, the ratios of the integrated areas of the chromatographic peaks corresponding to each analyte and the integrated areas of the peaks corresponding to each analyte's internal standard (with known absolute quantity) are used to determine the relative quantity of each analyte in a given sample. After supernatant sample collection, 250 ul of methanol containing 100 μg of each deuterated internal standard was added. Samples were then vigorously vortexed and centrifuged at 10,000 g for 10 min before loading onto solid-phase extraction cartridges (Strata-X 33 um Polymeric Reversed Phase, 10 mg, Phenomenex 8B-S100-AAK), that were previously activated with 2 ml methanol and rinsed with 2 ml water. […] After washing with 5 ml water, extracts were eluted with 1 ml methanol. Solvent was then evaporated under vacuum in a SpeedVac centrifuge, and the extract was resuspended in 100 ul acetonitrile/water 60:40 (v/v). An aliquot of 20 ul was injected into the LC-MS/MS system for analysis. […] A Sciex Triple Quad 6500+ mass spectrometer with multiple reaction monitoring was used in negative ion mode. The chromatographic profile of the ion count for each m/z transition was monitored, and the area under the peaks (ion intensity vs elution time) was integrated using commercial software (MultiQuant, Sciex).

Regarding `CCCCC#CCSc1ccccc1OC(C)=O` [APHS, o-(acetoxyphenyl)hept-2-ynyl sulfide], the “AHGF-induced expression of collagen 1” value in the assay with collagen 1 is “significantly reduced”. The “AHGF-induced expression of SMAD2/3” value with SMAD2/3 is given as “significantly reduced”. Further, the “net enzymatic activity, acetylated-COX2 vs COX2 production of lipid mediators” value in the assay with HTCFs (APHS 12 μg/ml, alone or with gentamicin 250 μg/ml, vs inf. cytokines control) is “significantly shift the net enzymatic activity toward net acetylated-COX2 production of lipid mediators”. In the assay with HTCFs (APHS 12 μg/ml), the “CytoM1+TGFb1 induced COX2 activity, as measured through PGE2 and kPGF1a secretion” value is reported as “significantly inhibit COX2 activity”; the “secretion of acetylated-COX2 products, as measured through 5-HETE and 15-HETE secretion” value was “profoundly and significantly increased the secretion of acetylated-COX2 products relative to all other treatment groups”.

`CC(=O)Oc1ccccc1C(=O)O` [ASA, acetylsalicylic acid]: the “AHGF-induced expression of collagen 1” value in the assay with collagen 1 is listed as “significantly reduced”. In addition, the “AHGF-induced expression of SMAD2/3” value with SMAD2/3 is listed as “significantly reduced”. Also, the “relative amount of COX2 products relative to inf. cytokines control” value in the assay with HTCFs (ASA 500 μg/ml) and in the assay on HTCFs (ASA 1000 μg/ml) was “significantly reduce the relative amount of COX2 products relative to the inf. cytokines control group” throughout. Moreover, the “balance of enzymatic activity (COX2:acetyl-COX2 ratio)” value in the assay with HTCFs (ASA 500 μg/ml, alone or with gentamicin 250) is “positive values for the COX2:acetyl-COX2 ratio at all timepoints”; in the assay on HTCFs (ASA 1000 μg/ml, alone or with gentamicin 500) it was “unable to significantly shift the balance of enzymatic activity toward net actyl-COX2 production relative to COX2 production”. Further, the “CytoM1+TGFb1 induced COX2 activity, as measured through PGE2 and kPGF1a secretion” value with HTCFs (APHS 12 μg/ml) was “significantly inhibit CytoM1+TGFb1 induced COX2 activity”. Besides, in the assay on HTCFs (APHS 12 μg/ml), the “secretion of acetylated-COX2 products, as measured through 5-HETE and 15-HETE secretion” value is on record as “either no effect or a significantly smaller effect on acetylated-COX2 products relative to the ASA/Gent experimental group”.
